These results are taken from patent publication US6274606A, “Methods of treating central nervous system disorders with aryl substituted olefinic amine compounds” (Targacept, Inc., priority 1998, dated 2001).

Assay type in all cases: cell-based
Assay [1] addresses T1, ganglionic receptors (Rattus norvegicus, UniProt P04757+P12392).
T1 construct: endogenous in cells; host or cells: cell preparations derived from the adrenal gland
Description: cell-based. The note with it: for Ganglion Effect (% nicotine): ganglionic cell preparations.

The target of assay [2] is T2, muscle receptors (Homo sapiens, UniProt P02708+P07510+Q07001).
T2 construct: endogenous in cells; host or cells: cell preparations derived from muscle
The conditions noted are these: muscle cell preparations.

Assay [3] relates to CNS nicotinic receptors. Description: Determination of Dopamine Release. On the procedure:
As such, these compounds have the ability to cause relevant neurons to release or secrete acetylcholine, dopamine, and other neurotransmitters. […] Certain compounds of the present invention can provide secretion of dopamine in an amount which can exceed that elicited by an equal molar amount of (S)-(-)-nicotine.
Determination of Dolpamine Release
Dopamine release was measured using the techniques described in U.S. Pat. No. 5,597,919 to Dull et al., the subject matter of which is already incorporated herein by reference in its entirety. […] Reported EC50 is expressed in nM and Emax represent the amount released relative to nicotine.

pEC50: −log10 of the molar value.

T1 sequence (P04757 26-499): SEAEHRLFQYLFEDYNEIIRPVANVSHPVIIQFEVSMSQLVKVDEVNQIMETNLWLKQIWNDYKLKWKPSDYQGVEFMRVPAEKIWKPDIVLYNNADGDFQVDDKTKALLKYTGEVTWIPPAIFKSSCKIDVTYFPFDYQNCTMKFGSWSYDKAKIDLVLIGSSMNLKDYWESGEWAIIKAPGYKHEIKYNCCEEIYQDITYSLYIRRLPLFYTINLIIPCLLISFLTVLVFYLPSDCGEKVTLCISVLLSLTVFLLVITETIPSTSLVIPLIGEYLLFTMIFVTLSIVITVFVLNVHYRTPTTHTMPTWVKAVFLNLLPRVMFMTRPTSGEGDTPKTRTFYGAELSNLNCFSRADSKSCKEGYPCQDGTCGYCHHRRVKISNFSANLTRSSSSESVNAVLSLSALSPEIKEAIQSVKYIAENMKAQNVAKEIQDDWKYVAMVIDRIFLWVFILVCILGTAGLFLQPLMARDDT
T1 sequence (P12392 21-495): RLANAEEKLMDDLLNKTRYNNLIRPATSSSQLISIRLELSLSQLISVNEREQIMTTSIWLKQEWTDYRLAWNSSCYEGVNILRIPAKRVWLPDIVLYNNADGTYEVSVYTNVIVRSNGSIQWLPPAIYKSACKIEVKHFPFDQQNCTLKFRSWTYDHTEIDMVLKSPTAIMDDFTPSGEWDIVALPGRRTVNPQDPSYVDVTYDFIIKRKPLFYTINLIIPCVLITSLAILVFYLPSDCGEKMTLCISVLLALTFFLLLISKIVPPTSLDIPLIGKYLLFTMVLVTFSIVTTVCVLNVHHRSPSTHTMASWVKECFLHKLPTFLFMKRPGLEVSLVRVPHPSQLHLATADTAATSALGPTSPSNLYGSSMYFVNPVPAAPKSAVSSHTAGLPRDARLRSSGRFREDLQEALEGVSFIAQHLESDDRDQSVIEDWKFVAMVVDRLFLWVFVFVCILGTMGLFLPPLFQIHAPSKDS
T2 sequence (P07510 23-517): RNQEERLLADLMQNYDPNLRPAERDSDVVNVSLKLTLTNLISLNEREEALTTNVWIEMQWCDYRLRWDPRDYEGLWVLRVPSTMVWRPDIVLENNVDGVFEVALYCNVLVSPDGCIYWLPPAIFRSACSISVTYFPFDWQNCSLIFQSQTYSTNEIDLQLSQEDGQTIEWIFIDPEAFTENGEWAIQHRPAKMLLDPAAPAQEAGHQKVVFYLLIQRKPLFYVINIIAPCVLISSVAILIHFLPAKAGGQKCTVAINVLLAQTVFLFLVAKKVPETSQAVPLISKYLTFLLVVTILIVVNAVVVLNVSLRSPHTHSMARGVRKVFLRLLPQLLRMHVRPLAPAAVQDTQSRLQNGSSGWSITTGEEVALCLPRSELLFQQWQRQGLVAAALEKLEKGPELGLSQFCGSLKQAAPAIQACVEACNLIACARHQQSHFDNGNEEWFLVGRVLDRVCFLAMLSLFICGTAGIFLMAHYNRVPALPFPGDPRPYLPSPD
T2 sequence (P11230 24-501, further chain): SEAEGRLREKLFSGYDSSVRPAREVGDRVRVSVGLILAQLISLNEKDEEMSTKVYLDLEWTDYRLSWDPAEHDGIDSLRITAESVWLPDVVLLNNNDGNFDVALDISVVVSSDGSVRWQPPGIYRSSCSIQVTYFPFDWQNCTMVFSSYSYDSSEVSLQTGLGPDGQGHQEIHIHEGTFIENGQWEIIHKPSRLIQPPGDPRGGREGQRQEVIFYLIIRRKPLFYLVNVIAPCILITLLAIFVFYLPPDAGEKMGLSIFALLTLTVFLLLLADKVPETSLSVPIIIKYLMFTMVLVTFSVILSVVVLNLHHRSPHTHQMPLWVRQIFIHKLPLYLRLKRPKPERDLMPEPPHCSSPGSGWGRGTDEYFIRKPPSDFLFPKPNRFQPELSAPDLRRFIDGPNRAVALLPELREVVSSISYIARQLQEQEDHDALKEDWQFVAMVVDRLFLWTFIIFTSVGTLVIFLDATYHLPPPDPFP
T2 sequence (Q07001 22-517): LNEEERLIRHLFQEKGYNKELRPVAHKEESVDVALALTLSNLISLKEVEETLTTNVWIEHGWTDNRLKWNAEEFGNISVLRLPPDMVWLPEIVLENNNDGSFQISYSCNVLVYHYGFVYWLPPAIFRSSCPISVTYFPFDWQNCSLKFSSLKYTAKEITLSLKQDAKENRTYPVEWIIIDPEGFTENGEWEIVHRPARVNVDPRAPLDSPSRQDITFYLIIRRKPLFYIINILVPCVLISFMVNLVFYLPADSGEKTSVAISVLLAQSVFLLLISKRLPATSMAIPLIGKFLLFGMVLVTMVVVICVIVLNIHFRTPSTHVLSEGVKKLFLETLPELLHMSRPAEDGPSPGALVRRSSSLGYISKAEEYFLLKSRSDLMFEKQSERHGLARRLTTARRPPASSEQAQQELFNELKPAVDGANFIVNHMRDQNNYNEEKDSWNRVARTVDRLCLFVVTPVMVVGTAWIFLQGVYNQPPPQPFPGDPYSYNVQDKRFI
T2 sequence (P02708 21-457): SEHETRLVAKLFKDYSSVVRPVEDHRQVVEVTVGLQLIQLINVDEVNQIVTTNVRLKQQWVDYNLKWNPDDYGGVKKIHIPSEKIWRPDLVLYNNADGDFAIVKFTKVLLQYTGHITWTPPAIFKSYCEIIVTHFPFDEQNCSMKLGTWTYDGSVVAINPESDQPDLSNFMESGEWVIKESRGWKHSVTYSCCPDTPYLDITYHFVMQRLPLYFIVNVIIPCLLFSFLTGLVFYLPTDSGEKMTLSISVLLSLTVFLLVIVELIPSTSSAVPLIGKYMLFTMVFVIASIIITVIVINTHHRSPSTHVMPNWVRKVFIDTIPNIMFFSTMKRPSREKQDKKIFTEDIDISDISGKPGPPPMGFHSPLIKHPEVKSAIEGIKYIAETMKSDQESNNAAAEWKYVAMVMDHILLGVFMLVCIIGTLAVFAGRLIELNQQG

Turning to `CNCC/C=C/c1cncc(OCc2ccccc2)c1` [Sample No. 1, (E)-N-Methyl-4-[3-(5-benzyloxypyridin)yl]-3-buten-1-amine], the “Ganglion Effect (% nicotine)” value in assay [1] stood at 0. By pEC50 is commonly meant −log10 of the EC50, conventionally taken in molar units. A higher pEC50 goes with a small EC50. Regarding `NCC/C=C/c1cncc(Br)c1` [Sample No. 2, (E)-4-[3-(5-Bromopyridin)yl]-3-buten-1-amine Hemifumarate], the “Muscle Effect (% nicotine)” value in assay [2] stood at 8. For the same compound, the pEC50 in assay [3] was 5.62. In addition, the “Dopamine Release Emax” value in assay [3] (percentage of release obtained with a concentration of (S)-(-)-nicotine resulting in maximal effects) was 107%. Further, in assay [1], the “Ganglion Effect (% nicotine)” value worked out at 11. In the case of `CNCC/C=C/c1cncc(Oc2ccccc2)c1` [Sample No. 3, (E)-N-Methyl-4-[3-(5-phenoxypyridin)yl]-3-buten-1-amine], in assay [1], the “Ganglion Effect (% nicotine)” value is on record as < 15. Still for that read-out and setting: under `CNCC/C=C/c1cncc(OC(C)C)c1` [Sample No. 4, (E)-N-Methyl-4-[3-(5-isopropoxypyridin)yl]-3-buten-1-amine] stands < 15; under `CNCC/C=C/c1cncc(COC)c1` [Sample No. 5, (E)-N-Methyl-4-[3-(5-methoxymethylpyridin)yl]-3-buten-1-amine], 0. With `NCC/C=C/c1cccnc1.O=C(O)/C=C/C(=O)O.O=C(O)/C=C/C(=O)O` [Sample No. 6, (E)-4-(3-pyridinyl)-3-buten-1-amine difumarate], the “Ganglion Effect (% nicotine)” value in assay [1] is listed as 23. For the compound `CCOc1cncc(/C=C/CCNC)c1` [Sample No. 7, (E)-N-Methyl-4-[3-(5-ethoxypyridin)yl]-3-buten-1-amine Sesquifumarate], in assay [1] (read-out: Ganglion Effect (% nicotine)), the Emax is < 15%. In the case of `CNCC/C=C/c1cncc(-c2ccccc2)c1` [Sample No. 8, (E)-N-Methyl-4-[3-(5-phenylpyridin)yl]-3-buten-1-amine], the “Ganglion Effect (% nicotine)” value in assay [1] was 0. In the case of `CNCC/C=C/c1cncc(N)c1` [Sample No. 9, (E)-N-methyl-4-[3-(5-aminopyridin)yl]-3-buten-1-amine], the “Ganglion Effect (% nicotine)” value in assay [1] is on record as 4.
